Test results published in publication PMC10887108, “Novel Brain-Penetrant, Small-Molecule Tubulin Destabilizers for the Treatment of Glioblastoma” (Biomedicines, 2024).

How the values were obtained:
[1] = molecular target: T1, porcine tubulin (Sus scrofa, UniProt P02554); assay: Tubulin polymerization assay (fluorescent reporter); assay type: biochemical; details: porcine tubulin 20 μM; for reduction in tubulin polymerization (AUC): compound 5 μM, relative to DMSO
T1 construct: purchased Cytoskeleton, Inc. BK011P
Protocol: Tubulin polymerization was evaluated by monitoring the incorporation of a fluorescent reporter into MTs during polymerization. The tubulin polymerization assay kit (Cytoskeleton, Inc. BK011P; Denver, CO, USA) was used according to the manufacturer’s instructions. Briefly, the tubulin reaction mix was kept on ice until immediately prior to use.
(A,B) Representative tubulin polymerization plots and data quantification. […] (C) Immunofluorescence staining of β-tubulin in U87 glioblastoma cells. […] Images were captured using an Operetta confocal microscope at 40× magnification. Scale bar, 10 μm. […] Data was collected with a BD FACS Canto II Flow Cytometer and analyzed using the BD FACSDiva software. (E) The percentage of cells in G1, S, and G2/M phases from the histograms in (D). Data are plotted as mean ± SD from at least three independent experiments. Analysis between groups in (B) was performed using a one-way ANOVA with Tukey’s multiple comparisons test.

[2] = system: U87 cells (microtubule network); assay: Immunofluorescent staining of cellular β-tubulin; assay type: cell-based, human; details: U87, compounds at their IC50 concentrations, 24 h
Protocol: U87 cells (4000/well) were plated in black 96-well plates (Perkin Elmer 6055302; Waltham, MA, USA) and grown overnight. Cells were treated with compounds for 24 h, fixed with 4% paraformaldehyde for 20 min, and permeabilized with FoxP3 permeabilization buffer (eBioscience/Thermo Fisher Scientific 00-5523-00; Waltham, MA, USA) for 10 min at RT. Cells were incubated with an anti-TUBB3 (Tuj1) antibody (1:1000; […] Technologies 60052; Vancouver, BC, Canada) labeled with Hoechst 33342 dye (1:2000; Thermo Fisher Scientific H3570; Waltham, MA, USA). Images (40×) were taken with an automated high-content imaging microscope (Operetta, Perkin Elmer; Waltham, MA, USA).

[3] = system: LN-18 glioblastoma cells (TMZ-resistant); assay: alamarBlue cell viability assay, LN-18; assay type: cell-based; details: Homo sapiens, LN-18, 72 h, average absolute IC50
Protocol: (§1) Cells (100 µL/well) were seeded in 96-well tissue culture plates (Greiner Bio-One 650090; Kremsmünster, Austria). The plating density (cells/well) for each cell line was as follows: LN-18 (3000), U87 (4000), and HMC3 (5000). After overnight incubation, compounds were added to the cells (50 µL at 3× concentration, final 0.1% DMSO), and plates were incubated for 72 h. Cell viability was assessed by the addition of 25 µL of alamarBlue for a final concentration of 100 µM final concentration (Resazurin redox reagent, Sigma-Aldrich R7017; St. Louis, MO, USA). After a 4 h incubation, fluorescence was read on a CLARIOstar Plus plate reader (BMG Labtech, Ortenberg, Germany) at EX 570/EM 590 nm.

[4] = system: U87 glioblastoma cells; assay: Cell cycle analysis (propidium iodide flow cytometry); assay type: cell-based, human; details: 48 h
Protocol: […] Cells were washed in ice-cold PBS, resuspended in 1 mL of ice-cold 70% ethanol, and fixed overnight at −20 °C. Cells were centrifuged and resuspended in PBS containing RNAse A at a final concentration of 0.5 mg/mL (MilliporeSigma 10109142001; Burlington, MA, USA) and propidium iodide at a final concentration of 0.04 mg/mL (Sigma-Aldrich P4170, St. Louis, MO, USA) for 1 h at 37 °C. Nuclear staining was analyzed using a BD FACSCanto II flow cytometer (BD Biosciences; Franklin Lakes, NJ, USA) to determine cell cycle distribution. Cell cycle analysis was performed using the BD FACSDiva software v8.0.

[5] = system: U87 glioblastoma cells; assay: alamarBlue cell viability assay, U87; assay type: cell-based; details: Homo sapiens, 72 h, U87, 72 h, average absolute IC50
Protocol: as §1

[6] = molecular target: T2, Porcine tubulin (colchicine binding site) (Sus scrofa, UniProt P02554); assay: Colchicine competitive binding assay (fluorescence); details: compound 50 µM, colchicine 10 μM, tubulin 20 μM
T2 construct: purchased Cytoskeleton, Inc. T240; host or cells: brain tissue (purified)

CO[C@H]1CC[C@H](C(=O)NC(=O)Nc2ccc(Oc3ncc(Cl)cn3)c(C)c2)CC1 [RGN3096]
reduction in tubulin polymerization (AUC) [1]: no difference relative to the DMSO control | effect on tubulin organization / MT network morphology [2]: no visible effect on tubulin and cell structure | IC50 [3]: 2.43 µM | cells arrested at G2/M ([4]; U87, 5 µM): 11% | IC50 [5]: > 10 µM

COc1cc2c(c(OC)c1OC)-c1ccc(OC)c(=O)cc1[C@@H](NC(C)=O)CC2 [colchicine, reference compound]
effect on tubulin organization / MT network morphology [2]: varying levels of disruption of tubulin organization | cells arrested at G2/M ([4]; U87, 20 nM): 64%

CC(=O)O[C@H]1C(=O)[C@@]2(C)[C@H]([C@H](OC(=O)c3ccccc3)[C@]3(O)C[C@H](OC(=O)[C@H](O)[C@@H](NC(=O)c4ccccc4)c4ccccc4)C(C)=C1C3(C)C)[C@]1(OC(C)=O)CO[C@@H]1C[C@@H]2O [PX, paclitaxel, reference compound]
increase in tubulin polymerization (AUC) ([1]; paclitaxel 3 μM): 91%

COC(=O)Nc1nc2ccc(C(=O)c3cccs3)cc2[nH]1 [NOC, Nocodazole, reference compound]
reduction of colchicine–tubulin fluorescence relative to control [6]: 79%

CO[C@H]1CC[C@@H](C(=O)NC(=O)Nc2ccc(Oc3ncc(Cl)cn3)c(C)c2)CC1 [RGN3062]
reduction in tubulin polymerization (AUC) [1]: 36% | effect on tubulin organization / MT network morphology [2]: substantial tubulin disruption | IC50 [3]: 0.073 µM | cells arrested at G2/M ([4]; U87, 5 µM): 73% | IC50 [5]: 0.588 µM
